# Measured values published in patent publication US12527849B2, “Apparatus for determining administration form of a composition of an engineered virus-based nanoparticle for a treatment of an autoimmune condition” (Diamante Srl, priority 2021, dated 2026).
# Tested on: NOD mice
# Assay: Diabetes-free survival of NOD mice (Kaplan-Meier analysis, log-rank test)
# Type: in vivo
# Details: two i.p. treatments, 2 weeks between doses, 50 μg per mouse
# Source text: With continued reference to FIG. 1, as another non-limiting example, administration 116 of composition of the engineered virus-based nanoparticle for a treatment of an autoimmune disease may be done to nonobese diabetic (NOD) mice. In another non-limiting example, administration 116 of composition of the engineered virus-based nanoparticle for a treatment of an autoimmune disease may be done to any animal disclosed in this disclosure, such as but not limited to a human. Four-week-old female NOD mice may be obtained from Charles River Laboratories and may be housed under specific pathogen-free conditions in the animal facility at the University of Perugia, with ad libitum access to water and food. NOD mice may be randomly subdivided into four groups. In group 1 (n=18), CPMV·p524opt [50 μg per mouse, resuspended in 100 μl of phosphate-buffered saline (PBS)] may be injected twice intraperitoneally, with 2 weeks between doses. […] Mice may be monitored for the appearance of clinical signs of diabetes and may be euthanized when the disease was confirmed by glucosuria. […]
# With continued reference to FIG. 1, in some embodiments, processor 104 may determine critical administration 124 as a function of a statistical comparison between administration groups 132. […] As a non-limiting example, a Kaplan-Meier analysis may be calculated using the following formula: […]
substance,measurement,value
"p524opt: p524 sequence adjusted to a pI of 8.59 (SEQ ID NO. 2), synthetic peptide given with IFA (DSRLSKVAPVIKARMMED)",protection from the onset of diabetes (in words),no protective effect
